According to the NIST ThermoML archive (doi:10.1016/j.fluid.2019.03.004):
Numbers after ± are expanded uncertainties.

Details: Liquid, Transpiration method

C=CCc1ccc(O)c(OC)c1 [2-hydroxy-5-allylanisole]
Details | vapor or sublimation pressure [kPa]
281.1 K | 0.0003 ± 2e-05
283.7 K | 0.00039 ± 3e-05
289 K | 0.00066 ± 5e-05
293.9 K | 0.00111 ± 8e-05
298.9 K | 0.00179 ± 0.00012
303.7 K | 0.00287 ± 0.0002
308.7 K | 0.00447 ± 0.0003
313.7 K | 0.00709 ± 0.00049
318.9 K | 0.01038 ± 0.00069
323.6 K | 0.01507 ± 0.00099
328.6 K | 0.02241 ± 0.0015
333.6 K | 0.03329 ± 0.0022
338.5 K | 0.04891 ± 0.0031
343.5 K | 0.06869 ± 0.0043

C=CCc1ccc(OC)cc1 [1-allyl-4-methoxybenzene]
Details | vapor or sublimation pressure [kPa]
279.1 K | 0.00378 ± 0.00025
284.1 K | 0.00583 ± 0.00041
288.9 K | 0.00912 ± 0.00062
293.8 K | 0.01395 ± 0.00092
298.8 K | 0.02153 ± 0.0014
303.7 K | 0.03168 ± 0.002
308.8 K | 0.04509 ± 0.0029
313.7 K | 0.06571 ± 0.0042
318.2 K | 0.09199 ± 0.0058
323.2 K | 0.1278 ± 0.008

C/C=C/c1ccc(OC)cc1 [(E)-1-(4-methoxyphenyl)propene]
Details | vapor or sublimation pressure [kPa]
296.5 K | 0.00567 ± 0.00041
300.4 K | 0.00774 ± 0.00054
304.4 K | 0.0112 ± 0.00076
308.4 K | 0.01507 ± 0.00099
312.3 K | 0.02056 ± 0.0013
313.2 K | 0.02178 ± 0.0014
316.4 K | 0.02753 ± 0.0018
318.5 K | 0.03262 ± 0.0021
321.4 K | 0.04178 ± 0.0027
323.4 K | 0.04533 ± 0.0029
326.4 K | 0.05539 ± 0.0035
328.4 K | 0.06574 ± 0.0042
331.5 K | 0.08089 ± 0.0051
333.4 K | 0.09361 ± 0.0059

C/C=C/c1ccc(O)c(OC)c1 [2-methoxy-4-(1E)-1-propen-1-yl-phenol]
Details | vapor or sublimation pressure [kPa]
313.2 K | 0.00241 ± 0.00017
315.2 K | 0.00289 ± 0.0002
316.2 K | 0.00313 ± 0.0002
318.2 K | 0.00371 ± 0.00025
320.3 K | 0.00449 ± 0.0003
323.2 K | 0.00561 ± 0.0004
325.2 K | 0.00657 ± 0.00046
328.1 K | 0.00838 ± 0.00056
330.2 K | 0.00975 ± 0.00066
333.2 K | 0.01216 ± 0.00081
336.3 K | 0.01528 ± 0.001
338.2 K | 0.01783 ± 0.0012
340.2 K | 0.02046 ± 0.0013
343.2 K | 0.02507 ± 0.0016
345.1 K | 0.02835 ± 0.0018
348.2 K | 0.03558 ± 0.0023
350.1 K | 0.04019 ± 0.0026
353.1 K | 0.05109 ± 0.0033
356.1 K | 0.06297 ± 0.004
358.1 K | 0.07097 ± 0.0045
